Test results published in patent publication US20080194585A1, “Fungicidal Pyrazine Derivatives” (priority 2005, published 2008).
Marks after values point to notes of the source that are not given here.

Tests used:
fusarium graminearium = assay: Test I: wheat head scab, preventive spray on wheat seedlings; conditions: 200 ppm
Protocol: (the causal agent of wheat head scab) and incubated in a saturated atmosphere at 20° C. for 72 h, and then moved to a growth chamber at 22° C. for 5 days, after which disease ratings were made.

[1] = test system: Puccinia recondita f. sp. tritici; assay: Test K: wheat leaf rust, preventive spray on wheat seedlings
Sclerotinia sclerotiorum = assay: Test C: cucumber white mold, preventive spray on cucumber seedlings
Phytophthora infestans = assay: whole plant or invertebrate; format: in vivo; conditions: 200 ppm
Plasmopara viticola = assay: Test D: grape downy mildew, spray after inoculation of grape seedlings; format: in vivo; conditions: 200 ppm
Text: Upon removal, disease ratings were made. […] A dash (-) indicates no test results.

Rhizoctonia oryzae = assay: Test G: turf brown patch, preventive spray on creeping bent grass seedlings
Protocol: (the causal agent of turf brown patch) and incubated in a saturated atmosphere at 27° C. for 24 h, and then moved to a growth chamber at 27° C. for 5 days, after which disease ratings were made.

Botrytis cinerea = assay: Test E: tomato botrytis, preventive spray on tomato seedlings
Pythium aphanidermatum = assay: Test A: bluegrass pythium blight, preventive spray on bluegrass seedlings; conditions: 200 ppm
[2] = test system: Colletotrichum orbiculare; assay: Test B: cucumber Colletotrichum anthracnose, preventive spray on cucumber seedlings
Septoria tritici = assay: Test J: wheat leaf blotch, preventive spray on wheat seedlings; format: in vivo
Text: A dash (-) indicates no test results.

[3] = test system: Erysiphe graminis f. sp. tritici; assay: Test L: wheat powdery mildew, preventive spray on wheat seedlings
Septoria nodorum = assay: Test H: wheat glum blotch, preventive spray on wheat seedlings
Protocol: (the causal agent of wheat glum blotch) and incubated in a saturated atmosphere at 20° C. for 48 h, and then moved to a growth chamber at 22° C. for 5 days, after which disease ratings were made.

Structure (SMILES) | Test I disease control rating (fusarium graminearium) | Test K disease control rating ([1]; 40 ppm (*)) | Test C disease control rating (Sclerotinia sclerotiorum; 200 ppm) | Test F disease control rating (Phytophthora infestans) | Test D disease control rating (Plasmopara viticola) | Test G disease control rating (Rhizoctonia oryzae; 40 ppm (*)) | Test E disease control rating (Botrytis cinerea; 40 ppm (*)) | Test A disease control rating (Pythium aphanidermatum) | Test B disease control rating ([2]; 40 ppm (*)) | Test J disease control rating (Septoria tritici; 40 ppm (*)) | Test L disease control rating ([3]; 40 ppm (*)) | Test H disease control rating (Septoria nodorum; 40 ppm (*)) | Test K disease control rating ([1]; 200 ppm) | Test G disease control rating (Rhizoctonia oryzae; 200 ppm) | Test E disease control rating (Botrytis cinerea; 200 ppm) | Test B disease control rating ([2]; 200 ppm) | Test J disease control rating (Septoria tritici; 200 ppm) | Test L disease control rating ([3]; 200 ppm) | Test H disease control rating (Septoria nodorum; 200 ppm) | Test C disease control rating (Sclerotinia sclerotiorum; 40 ppm (*))
CCC(C)Cn1c(-c2c(F)cccc2F)c(Cl)nc(-n2cnc(Cl)c2Cl)c1=O (stereo not drawn) [compound 68] | 0% | 0* % | 0% | 0% | 0% | 0* % | 0* % | 0% | 0* % | 26* % | 0* % | 0* % |  |  |  |  |  |  |  | 
CCc1nccn1-c1nc(Cl)c(-c2c(F)cccc2F)n(CC(C)CC)c1=O (stereo not drawn) [compound 70] | 0% | 55* % | 0% | 0% | 0% | 0* % | 0* % | 0% | 0* % | 83* % | 0* % | 0* % |  |  |  |  |  |  |  | 
CCCc1nccn1-c1nc(Cl)c(-c2c(F)cccc2F)n(CC(C)CC)c1=O (stereo not drawn) [compound 71] | 0% | 68* % | 0% | 0% | 0% | 30* % | 0* % | 0% | 0* % | 64* % | 0* % | 0* % |  |  |  |  |  |  |  | 
CCC(C)Cn1c(-c2c(F)cccc2F)c(Cl)nc(-n2ccnc2C(C)C)c1=O (stereo not drawn) [compound 72] | 0% | 61* % | 0% | 0% | 0% | 58* % | 0* % | 0% | 0* % | 74* % | 53* % | 0* % |  |  |  |  |  |  |  | 
CC(C)Cn1c(-c2ccc(C(C)(C)C)cc2)c(Cl)nc(-n2cccn2)c1=O [compound 74] | 0% | 80* % | 0% | 0% | 0% | 0* % | 0* % | 0% | 0* % | 26* % | 75* % | 0* % |  |  |  |  |  |  |  | 
CC(C)Cn1c(-c2ccc(C(C)(C)C)cc2)c(Cl)nc(-n2cncn2)c1=O [compound 75] | 0% | 0* % | 0% | 0% | 0% | 0* % | 0* % | 0% | 0* % | 7* % | 0* % | 0* % |  |  |  |  |  |  |  | 
CC(C)Cn1c(-c2ccc(C(F)(F)F)cc2)c(Cl)nc(-n2cncn2)c1=O [compound 76] | 0% | 0* % | 0% | 21% | 0% | 0* % | 0* % | 0% | 0* % | 0* % | 0* % | 0* % |  |  |  |  |  |  |  | 
CC(C)Cn1c(-c2ccc(OC(F)(F)F)cc2)c(Cl)nc(-n2cncn2)c1=O [compound 77] | 0% | 0* % | 0% | 0% | 0% | 0* % | 0* % | 0% | 0* % | 0* % | 0* % | 0* % |  |  |  |  |  |  |  | 
COC(=O)C(C)=NNc1nc(Cl)c(-c2c(F)cccc2F)n(CC(C)C)c1=O [compound 78] | 0% |  | 0% | 0% | 0% |  |  | 0% |  |  |  |  | 0% | 0% | 0% | 0% | 91% | 0% | 0% | 
Cc1ccc(-c2c(Cl)nc(-n3cccn3)c(=O)n2CC(C)C)c(C)c1 [compound 80] | 0% |  |  | 0% | 0% |  |  | 0% |  |  |  |  | 100% | 47% | 100% | 99% | 100% | 94% | 100% | 0* %
CCC(C)Cn1c(-c2c(F)cccc2F)c(Cl)nc(-n2ccc(C#N)n2)c1=O (stereo not drawn) [compound 81] | 0% | 68* % | 0% | 0% | 0% | 31* % | 93* % | 0% | 0* % | 52* % | 0* % | 0* % |  |  |  |  |  |  |  | 
CCC(C)Cn1c(-c2c(F)cccc2F)c(Cl)nc(-n2cccc2)c1=O (stereo not drawn) [compound 82] | 0% | 68* % | 0% | 0% | 0% | 0* % | 0* % | 0% | 0* % | 5* % | 0* % | 73* % |  |  |  |  |  |  |  | 
COc1cc(OC)c(-c2c(Cl)nc(-n3cccn3)c(=O)n2CC(C)C)c(OC)c1 [compound 86] | 23% |  | 4% | 0% | 0% |  |  | 0% |  |  |  |  | 0% | 0% | 0% | 0% | 0% | 0% | 0% | 
CC(C)Cn1c(-c2c(F)cccc2C(F)(F)F)c(Cl)nc(-n2cccn2)c1=O [compound 87] | 18% |  | 95% | 0% | 0% |  |  | 0% |  |  |  |  | 100% | 99% | 100% | 100% | 74% | 100% | 100% | 
CC(C)Cn1c(-c2ccc3c(c2)OCO3)c(Cl)nc(-n2cccn2)c1=O [compound 88] | 0% |  | 99% | 24% | 0% |  |  | 0% |  |  |  |  | 97% | 16% | 100% | 52% | 100% | 0% | 99% | 
O=c1c(-n2cccn2)nc(Cl)c(-c2c(F)cccc2F)n1CC1CCCO1 (stereo not drawn) [compound 91] | 0% | 0* % | 0% | 0% | 0% | 0* % | 92* % | 0% | 0* % | 93* % | 0* % | 33* % |  |  |  |  |  |  |  | 
